This assay concerns the target T1, activated JNK3 (Homo sapiens, UniProt P53779).
T1 construct: One such construct encodes amino acid residues Ser40-Glu402 of JNK3α1 and is preceded by Met and Gly residues; Met-Gly (initiator Met plus Gly added for the NcoI site) (N); made in house; host or cells: E. coli BL21 (DE3)
Nature of the assay: JNK3 inhibition, spectrophotometric coupled-enzyme assay. The settings on record: activated JNK3 10 nM, 10 μM ATP, 200 μM EGF receptor peptide, 30° C. In kind it is biochemical. From the text:
A BLAST search of the EST database using the published JNK3α1 cDNA as a query identified an EST clone (#632588) that contained the entire coding sequence for human JNK3α1. Polymerase chain reactions (PCR) using pfu polymerase (Strategene) were used to introduce restriction sites into the cDNA for cloning into the pET-15B expression vector at the NcoI and BamHI sites. The protein was expressed in E. coli. Due to the poor solubility of the expressed full-length protein (Met 1-Gln 422), an N-terminally truncated protein starting at Ser residue at position 40 (Ser 40) was produced. This truncation corresponds to Ser 2 of JNK1 and JNK2 proteins, and is preceded by a methionine (initiation) and a glycine residue. The glycine residue was added in order to introduce an NcoI site for cloning into the expression vector. In addition, systematic C-terminal truncations were performed by PCR to identify a construct that give rise to diffraction-quality crystals. One such construct encodes amino acid residues Ser40-Glu402 of JNK3α1 and is preceded by Met and Gly residues.
5 mg of JNK3 was diluted to 0.5 mg/ml in 50 mM HEPES buffer, pH 7.5, containing 100 mM NaCl, 5 mM DTT, 20 mM MgCl2 and 1 mM ATP. GST-MKK7(DD) was added at a molar ratio of 1:2.5 GST-MKK7:JNK3. After incubation for 30 minutes at 25° C., the reaction mixture was concentrated 5-fold by ultrafiltration in a Centriprep-30 (Amicon, Beverly, Mass.), diluted to 10 ml and an additional 1 mM ATP added. This procedure was repeated three times to remove ADP and replenish ATP. The final addition of ATP was 5 mM and the mixture incubated overnight at 4° C.
The activated JNK3/GST-MKK7(DD) reaction mixture was exchanged into 50 mM HEPES buffer, pH 7.5, containing 5 mM DTT and 5% glycerol (w/v) by dialysis or ultrafiltration. The reaction mixture was adjusted to 1.1 M potassium phosphate, pH 7.5, and purified by hydrophobic interaction chromatography (at 25° C.) using a Rainin Hydropore column. […] Activated JNK3 (i.e. doubly phosphorylated JNK3) was stored at −70° C. at 0.25-1 mg/ml.
Compounds were assayed for the inhibition of JNK3 by a spectrophotometric coupled-enzyme assay. In this assay, a fixed concentration of activated JNK3 (10 nM) was incubated with various concentrations of a potential inhibitor dissolved in DMSO for 10 minutes at 30° C. in a buffer containing 0.1 M HEPES buffer, pH 7.5, containing 10 mM MgCl2, 2.5 mM phosphoenolpyruvate, 200 μM NADH, 150 μg/mL pyruvate kinase, 50 μg/mL lactate dehydrogenase, and 200 μM EGF receptor peptide. The EGF receptor peptide has the sequence […], and is a phosphoryl acceptor in the JNK3-catalyzed kinase reaction. The reaction was initiated by the addition of 10 μM ATP and the assay plate is inserted into the spectrophotometer's assay plate compartment that was maintained at 30° C. The decrease of absorbance at 340 nm was monitored as a function of time. The rate data as a function of inhibitor concentration was fitted to competitive inhibition kinetic model to determine the Ki.
T1 sequence (P53779 40-402): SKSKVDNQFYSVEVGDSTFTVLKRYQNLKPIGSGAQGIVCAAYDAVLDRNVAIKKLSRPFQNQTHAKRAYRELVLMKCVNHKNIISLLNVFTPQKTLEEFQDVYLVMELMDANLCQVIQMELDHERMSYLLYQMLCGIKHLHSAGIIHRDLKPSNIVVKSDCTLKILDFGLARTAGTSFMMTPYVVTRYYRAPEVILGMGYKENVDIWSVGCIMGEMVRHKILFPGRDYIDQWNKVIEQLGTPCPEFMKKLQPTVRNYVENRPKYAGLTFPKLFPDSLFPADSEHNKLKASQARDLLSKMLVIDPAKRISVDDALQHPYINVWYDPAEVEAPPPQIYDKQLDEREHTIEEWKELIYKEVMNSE
The Ki is the equilibrium dissociation constant of an inhibitor or competing ligand from its target. Take `Cc1ccccc1Nc1[nH]c(=O)[nH]c(=O)c1C(=O)Nc1ccc(F)cc1` [Cmpd 6]: the Ki is ≥ 1 µM. As to `O=C(Nc1ccccc1)c1c(Nc2ccc(F)cc2)[nH]c(=O)[nH]c1=O` [Cmpd 8], the Ki was ≥ 1 µM.

On to `O=C(Nc1ccccn1)c1c(Nc2ccccc2)[nH]c(=O)[nH]c1=O` [Cmpd 2, 2,4-Dioxo-6-phenylamino-1,2,3,4-tetrahydro-pyrimidine-5-carboxylic acid pyridin-2-ylamide], for which the Ki was ≥ 1 µM. As to `O=C(Nc1ccc(F)cc1)c1c(Nc2ccccc2)[nH]c(=O)[nH]c1=O` [Cmpd 3, 2,4-dioxo-6-phenylamino-1,2,3,4-tetrahydro-pyrimidine-5-carboxylic acid (4-fluoro-phenyl)-amide], the Ki was ≥ 1 µM. The figure for `Cc1cccc(NC(=O)c2c(Nc3ccc(F)cc3)[nH]c(=O)[nH]c2=O)c1` [Cmpd 10] is ≥ 1 µM. To `Cc1cccc(NC(=O)c2c(Nc3ccccc3C)[nH]c(=O)[nH]c2=O)c1` [Cmpd 7] belongs ≥ 1 µM.

Consider `O=C(Nc1ccccc1)c1c(Nc2ccccc2)[nH]c(=O)[nH]c1=O` [Cmpd 1], for which the Ki is < 1 µM. On to `Cc1cccc(NC(=O)c2c(Nc3ccccc3)[nH]c(=O)[nH]c2=O)c1` [Cmpd 4], for which the Ki was ≥ 1 µM.

For `Cc1ccccc1Nc1[nH]c(=O)[nH]c(=O)c1C(=O)Nc1ccccc1` [Cmpd 5], the Ki is ≥ 1 µM.

With `O=C(Nc1ccc(F)cc1)c1c(Nc2ccc(F)cc2)[nH]c(=O)[nH]c1=O` [Cmpd 9], the Ki was ≥ 1 µM.

For the origin of these results see patent US20030100549A1, “Inhibitors of c-Jun N-terminal kinases (JNK)” (priority 1999, published 2003).
